Patent US20260048046A1, “METHOD FOR IMPROVING GROWTH PERFORMANCE IN FEEDLOT CATTLE” (Elanco US Inc., priority 2022, published 2026)

Tested on: beef feedlot cattle
Test: 56-d study: growth performance
Type: in vivo
Design: Average daily dry matter (DMI) / Average daily dry matter (DMI), difference from control: unit not given here
Conditions: for Average daily dry matter (DMI) / Average daily gain (ADG) / Gain:feed, ADG:DMI / Final BW: 56 d treatment, steers, LS mean; for Final BW: initial weight as covariate
Method: This example describes a randomized complete block study that evaluated LUB dose (0, 1.5, 3.5, and 5.5 mg kg^−1 dry matter) during the last 56 d of the feeding period on live weight, carcass weight, and associated ratios in beef feedlot cattle. Carcass characteristics, mobility, and health were also evaluated. All cattle received monensin and tylosin throughout the study.
A randomized complete block design was used to evaluate the effects of LUB on calculated growth performance of 2,880 British and Continental European crossbred steers typical for U.S. feedlots. Bos indicus breeding was limited to less than ⅛. The study evaluated four
LUB doses: 0 (control, CON), 1.5, 3.5, and 5.5 mg·kg^−1 DM. There were 12 blocks, each block containing four replicate pens that started LUB feeding on the same date. Steers were randomized within each block of four pens with 60 steers per pen, resulting in a total of 720 steers enrolled in each treatment. LUB feeding started on Jun. 24, 2018, Jul. 1, 2018, and Jul. 15, 2018, four blocks on each date.
Beginning no later than approximately d −70, animals were fed a diet containing Rumensin (monensin 46.3 mg·kg^−1 100% DM basis; Elanco, Greenfield, IN, USA) and Tylan (tylosin 8.9 mg·kg^−1 100% DM basis; Elanco) ad libitum. Cattle in the LUB treatments were switched from the basal finishing ration to the finishing ration containing the appropriate concentrations of LUB Type A premix at the start of the treatment period (d −57). Table 5 lists the composition and the formulated nutrient composition of the finishing diet. The diet was designed to meet or exceed the minimum nutrient requirements cited in Nutrient Requirements of Beef Cattle (NASEM, 2016). LUB was delivered to the cattle using a 1% LUB Type A premix prepared and delivered by Elanco (Clinton Laboratories, Clinton, IN, USA), and the ration was prepared on-site at the research facility. The 1% Type A premix was delivered into the ration by flushing the 1% Type A premix through a micro-ingredient machine (Micro Technologies, Amarillo, TX) with water, which was included at approximately 27 kg of the “as-fed” ration, for each 3,629 kg batch. The 1% Type A premix was included in the finishing ration at 0, 0.0154%, 0.0353%, or 0.0551% (100% DM) to provide CON, 1.5, 3.5, or 5.5 mg·kg^−1 LUB (100% DM). The on-site feed mixers used to mix (stationary horizontal paddle mixer [Cactus Varied Industries, Amarillo, TX, USA]) and deliver (Roto-Mix 490-14 and Roto-Mix 620-16, Roto-Mix LLC, Dodge City, KS) the Type C feed were qualified to confirm that the ration could be mixed homogeneously before feeding medicated feed. Cattle were fed in order of CON, 1.5, 3.5, or 5.5 mg·kg^−1 doses of LUB. Prior to mixing the CON batches, the mixer was flushed with appropriate amount of non-medicated feed or other cattle feed to assure no carryover of test compound. Feed was issued three times each day at approximately the same time each day. Bunk calls were made at the time of first feeding and amount of feed issued for the third feeding was adjusted based on daily bunk calls according to site procedures. The feeding goal was to have slick bunks prior to the first feeding and approximately ⅓ of the cattle at the bunk, ⅓ of the cattle moving to the bunk, and ⅓ of the cattle not moving to the bunk at time of first feeding. Water was available ad libitum throughout the study. The weight of feed issued was recorded and electronic feed records were provided for data analysis.
Animals were weighed individually at the time of randomization (approximately d −69 to d −66) and this weight was used to exclude steers with extreme BW from the trial. All other BW (unshrunk) were collected by pen and used for calculation of growth performance. Scheduled pen weights were taken prior to feed delivery and collected on d −59 (2 d before treatment start, which was considered the treatment start weight) and d 0 (1 d after the end of treatment, which was considered the treatment end weight). […]

[1] = steers fed LUB (doses pooled), 56 d

CC(C)(Cc1ccc(Oc2ncccc2C#N)cc1)NC[C@H](O)COc1ccccc1-c1cccs1 [LUB, 2-{4-[2-({(2S)-2-Hydroxy-3-[2-(2-thienyl)phenoxy]propyl}amino)-2-methylpropyl]phenoxy}nicotinonitrile]
Average daily dry matter (DMI), difference from control (1.5 mg·kg^−1 vs. control, 56 d): 0.2 | Average daily dry matter (DMI), percent change from Control (1.5 mg·kg^−1 vs. control, 56 d): 2.0% | Average daily gain (ADG), difference from control (1.5 mg·kg^−1 vs. control, 56 d): 0.19 kg | Average daily gain (ADG), percent change from Control (1.5 mg·kg^−1 vs. control, 56 d): 11.3% | Final BW, difference from control (1.5 mg·kg^−1 vs. control, 56 d): 11.6 kg | Final BW, percent change from Control (1.5 mg·kg^−1 vs. control, 56 d): 1.7% | Gain:feed, ADG:DMI, difference from control (1.5 mg·kg^−1 vs. control, 56 d): 0.015 | Gain:feed, ADG:DMI, percent change from Control (1.5 mg·kg^−1 vs. control, 56 d): 9.0% | Average daily dry matter (DMI), difference from control (3.5 mg·kg^−1 vs. control, 56 d): 0.3 | Average daily dry matter (DMI), percent change from Control (3.5 mg·kg^−1 vs. control, 56 d): 3.0% | Average daily gain (ADG), difference from control (3.5 mg·kg^−1 vs. control, 56 d): 0.26 kg | Average daily gain (ADG), percent change from Control (3.5 mg·kg^−1 vs. control, 56 d): 15.5% | Final BW, difference from control (3.5 mg·kg^−1 vs. control, 56 d): 15.7 kg | Final BW, percent change from Control (3.5 mg·kg^−1 vs. control, 56 d): 2.4% | Gain:feed, ADG:DMI, difference from control (3.5 mg·kg^−1 vs. control, 56 d): 0.028 | Gain:feed, ADG:DMI, percent change from Control (3.5 mg·kg^−1 vs. control, 56 d): 12.0% | Average daily dry matter (DMI), difference from control (5.5 mg·kg^−1 vs. control, 56 d): 0.2 | Average daily dry matter (DMI), percent change from Control (5.5 mg·kg^−1 vs. control, 56 d): 2.0% | Average daily gain (ADG), difference from control (5.5 mg·kg^−1 vs. control, 56 d): 0.24 kg | Average daily gain (ADG), percent change from Control (5.5 mg·kg^−1 vs. control, 56 d): 14.3% | Final BW, difference from control (5.5 mg·kg^−1 vs. control, 56 d): 14.3 kg | Final BW, percent change from Control (5.5 mg·kg^−1 vs. control, 56 d): 2.1% | Gain:feed, ADG:DMI, difference from control (5.5 mg·kg^−1 vs. control, 56 d): 0.019 | Gain:feed, ADG:DMI, percent change from Control (5.5 mg·kg^−1 vs. control, 56 d): 11.4% | Average daily dry matter (DMI) (LUB 1.5 mg·kg^−1 DM): 10.3 | Average daily gain (ADG) (LUB 1.5 mg·kg^−1 DM): 1.87 kg | Gain:feed, ADG:DMI (LUB 1.5 mg·kg^−1 DM): 0.182 | Final BW (LUB 1.5 mg·kg^−1 DM): 679.0 kg | Average daily dry matter (DMI) (LUB 3.5 mg·kg^−1 DM): 10.4 | Average daily gain (ADG) (LUB 3.5 mg·kg^−1 DM): 1.94 kg | Gain:feed, ADG:DMI (LUB 3.5 mg·kg^−1 DM): 0.187 | Final BW (LUB 3.5 mg·kg^−1 DM): 683.1 kg | Average daily dry matter (DMI) (LUB 5.5 mg·kg^−1 DM): 10.3 | Average daily gain (ADG) (LUB 5.5 mg·kg^−1 DM): 1.92 kg | Gain:feed, ADG:DMI (LUB 5.5 mg·kg^−1 DM): 0.186 | Final BW (LUB 5.5 mg·kg^−1 DM): 681.7 kg | Average daily gain [1]: 1.91 kg | Average daily gain greater than control [1]: 13.7% | Gain efficiency [1]: 0.185 | Gain efficiency greater than control [1]: 10.8% | Daily dry matter intake greater than control (steers that received LUB (doses pooled), 56 d): 2.3%
